Here are results for 23 compounds from patent US20140256830A1, “RESORCINOL COMPOUNDS FOR DERMATOLOGICAL USE” (Ampere Life Sciences, Inc., priority 2013, published 2014).

The first experiment deals with mushroom tyrosinase (Sigma T3824). As to the kind of experiment: Mushroom Tyrosinase Inhibition Assay. In kind it is biochemical. To be noted: 10 μM compound, 300 μM L-Tyrosine, 84 units/mL enzyme, pH 6.5, 15 min room temperature. The procedure:
10 μM compound, 300 μM L-Tyrosine, and 84 units/mL of mushroom tyrosinase (Sigma T3824) were combined into 0.05 M potassium monophosphate buffer at pH=6.5, and incubated for 15 min at room temperature. Absorbance was recorded at 490 nm. % tyrosinase inhibition was calculated as follows: (AbsDMSO−Abscmpd)/AbsDMSO×100. The assay was performed for various compounds described herein, as well as for control compounds 4-ethyl resorcinol (4ER), 4-isopropylresorcinol (4IPR), 4-hexylresorcinol (4HR), 4-cyclohexylresorcinol (4CHR), 5-methylresorcinol (5MR), kojic acid (KA), and hydroquinone (HQ), structures of which are shown below.
`Cc1cc(O)cc(O)c1Cc1ccccc1` [4,5BnMR, 4-benzyl-5-methylbenzene-1,3-diol]: the “Mushroom Tyrosinase (% remaining enzyme activity) % TYR Activity” value turned out to be 97%.

As for `Oc1cc(O)c(Cc2ccccc2)c(C(F)(F)F)c1` [4,5BnTFMR, 2-Benzyl-1,5-dihydroxy-3-trifluoromethyl-benzene], the “Mushroom Tyrosinase (% remaining enzyme activity) % TYR Activity” value was 93%.

As to `Oc1cc(O)c(C2CCCCC2)c(F)c1` [4,5CHFR, 4-cyclohexyl-5-fluorobenzene-1,3-diol], the “Mushroom Tyrosinase (% remaining enzyme activity) % TYR Activity” value amounted to 1%.

In the case of `Cc1cc(O)cc(O)c1C1CCCCC1` [4,5CHMR, 4-cyclohexyl-5-methylbenzene-1,3-diol], the “Mushroom Tyrosinase (% remaining enzyme activity) % TYR Activity” value is on record as 22%.

Take `Oc1cc(O)c(C2CCCCC2)c(C(F)(F)F)c1` [4,5CHTFMR]: the “Mushroom Tyrosinase (% remaining enzyme activity) % TYR Activity” value came to 100%.

In the case of `Cc1cc(O)cc(O)c1C1CCCC1` [4,5CPMR, 4-cyclopentyl-5-methylbenzene-1,3-diol], the “Mushroom Tyrosinase (% remaining enzyme activity) % TYR Activity” value came to 71%.

On to `Cc1cc(O)cc(O)c1C1CC1` [4,5CPrMR, 4-cyclopropyl-5-methylbenzene-1,3-diol], for which the “Mushroom Tyrosinase (% remaining enzyme activity) % TYR Activity” value is reported as 30%.

Regarding `Oc1cc(O)c(C2CCCCC2)c(F)c1` [4,5EFR, 4-cyclohexyl-5-fluorobenzene-1,3-diol], the “Mushroom Tyrosinase (% remaining enzyme activity) % TYR Activity” value was found to be 3%.

On to `CCc1c(C)cc(O)cc1O` [4,5EMR, 4-ethyl-5-methylbenzene-1,3-diol], for which the “Mushroom Tyrosinase (% remaining enzyme activity) % TYR Activity” value was determined as 93%.

`CCc1c(O)cc(O)cc1C(F)(F)F` [4,5ETFMR, 2-Ethyl-1,5-dihydroxy-3-trifluoromethyl-benzene]: the “Mushroom Tyrosinase (% remaining enzyme activity) % TYR Activity” value is given as 102%.

Take `CCCCCCc1c(C)cc(O)cc1O` [4,5HMR, 4-hexyl-5-methylbenzene-1,3-diol]: the “Mushroom Tyrosinase (% remaining enzyme activity) % TYR Activity” value is reported as 10%.

`Cc1cc(O)cc(O)c1C(C)C` [4,5IPMR, 4-isopropyl-5-methylbenzene-1,3-diol]: the “Mushroom Tyrosinase (% remaining enzyme activity) % TYR Activity” value is listed as 108%.

Consider `Cc1cc(O)cc(O)c1CC1CCCC1` [4,5MCPMR, 4-cyclopentylmethyl-5-methylbenzene-1,3-diol], for which the “Mushroom Tyrosinase (% remaining enzyme activity) % TYR Activity” value is reported as 32%.

Consider `Cc1cc(O)cc(O)c1C(C)c1ccccc1` (stereo not drawn) [4,5PEMR, 4-(1-phenylethyl)-5-methylbenzene-1,3-diol], for which the “Mushroom Tyrosinase (% remaining enzyme activity) % TYR Activity” value is 105%.

Consider `Cc1cc(O)cc(O)c1CC(F)(F)F` [4,5TFEMR, 4-(2,2,2-trifluoroethyl)-5-methylbenzene-1,3-diol], for which the “Mushroom Tyrosinase (% remaining enzyme activity) % TYR Activity” value amounted to 103%.

Turning to `CCC(C)c1c(C)cc(O)cc1O` (stereo not drawn) [4,5sBMR, 4-sec-butyl-5-methylbenzene-1,3-diol], the “Mushroom Tyrosinase (% remaining enzyme activity) % TYR Activity” value was 100%.

Regarding `Oc1ccc(C2CCCCC2)c(O)c1` [Compound 4CHR, 4-cyclohexylresorcinol, reference compound], the “Mushroom Tyrosinase (% remaining enzyme activity) % TYR Activity” value is 0%.

With `CCc1ccc(O)cc1O` [Compound 4ER, 4-ethyl resorcinol, reference compound], the “Mushroom Tyrosinase (% remaining enzyme activity) % TYR Activity” value came out at 2%.

Take `CCCCCCc1ccc(O)cc1O` [Compound 4HR, 4-hexylresorcinol, reference compound]: the “Mushroom Tyrosinase (% remaining enzyme activity) % TYR Activity” value is recorded as 1%.

For the compound `CC(C)c1ccc(O)cc1O` [Compound 4IPR, 4-isopropylresorcinol, reference compound], the “Mushroom Tyrosinase (% remaining enzyme activity) % TYR Activity” value was 1%.

`Cc1cc(O)cc(O)c1` [Compound 5MR, 5-methylresorcinol, reference compound]: the “Mushroom Tyrosinase (% remaining enzyme activity) % TYR Activity” value was 100%.

For `Oc1ccc(O)cc1` [Hydroquinone, hydroquinone, reference compound], the “Mushroom Tyrosinase (% remaining enzyme activity) % TYR Activity” value came to 100%.

For `O=c1cc(CO)occ1O` [Kojic Acid, kojic acid, reference compound], the “Mushroom Tyrosinase (% remaining enzyme activity) % TYR Activity” value turned out to be 84%.

The subject of another experiment is human neonatal epidermal melanocytes (HEMn-DP) / HaCaT cells co-culture. As to the kind of experiment: Melanocyte-HaCaT Co-Culture Assay. In kind it is cell-based. The settings on record: 10 μM concentration, 72 h, corrected for viability (Calcein-AM). The procedure:
Darkly pigmented human neonatal epidermal melanocytes (HEMn-DP, Invitrogen) were grown in Medium 254 with HMGS-2 supplement and P/S at 37° C. and 5% CO2. HaCaT cells were grown in DMEM, 10% FBS, P/S at 37° C., 5% CO2. Co-culture was conducted in 50% melanocyte media+50% keratinocyte media (EpiLife with EDGS, P/S). Cells were plated in the co-culture media at 40K (HaCaT) and 30K (HEMn-DP) per well in a 24-well plate. After 24 h of incubation at 37° C. and 5% CO2, media was changed to M153 (MCDB153 Sigma M7403 with NaHCO3 pH to 7.1, 2 mM Tyrosine, 10 nM NDP-aMSH, 3 ng/mL bFGF, 2.8 ug/mL Hydrocortisone, 10 ug/mL Insulin, 10 ug/mL Transferrin, and P/S), treated with compound, and incubated for 72 h at 37° C. and 5% CO2. After measuring cellular viability with Calcein-AM (RFU Ex/Em=488/525 nm), cells were lysed at 1 h at 65° C. with 1N NaOH+10% DMSO. Absorbance of cleared lysate was measured at 405 nm and 660 nm. % melanin was calculated as follows: ((Abs405DMSO−Abs660DMSO)/CalceinDMSO)−(Abs405comp−Abs660comp)/Calceincomp))/(Abs405DMSO−Abs660DMSO)/CalceinDMSO×100. At 10 μM concentration, % cellular melanin was 42% in the presence of compound 4,5CHMR.
With `Cc1cc(O)cc(O)c1C1CCCCC1` [4,5CHMR, 4-cyclohexyl-5-methylbenzene-1,3-diol], the “% cellular melanin” value is recorded as 42%.
